In US11452292B2, “Biofilm inhibitor and method of inhibiting biofilm” (NDSU Research Foundation, priority 2017, dated 2022):
≈ marks a conversion by molar mass, not a printed value. Where “and” joins values, the source holds several entries; their conditions need not be identical. Identical values can stand only once. Entries after “also recorded” stand apart in the source; their conditions may differ. Like-named read-outs stand apart in the source and are kept apart here.

Columns and labels:
B. subtilis = conditions: cited from earlier work
S. marcescens [1] = assay: Biofilm in silicone tubing, EAA flush, ATP assay; conditions: 5 mg/ml EAA
P. aeruginosa [2] = assay: Biofilm in silicone tubing, EAA flush, ATP assay
S. aureus [3] = assay: Viable cell counts in the liquid collected from the tubing before each treatment; type: cell-based, Staphylococcus aureus; conditions: before the 2nd treatment, 100 mg/ml EAA as first treatment
S. enterica = type: cell-based, Salmonella enterica serovar Typhimurium
S. aureus [4] = assay: Biofilm in silicone tubing, EAA flush, ATP assay; type: cell-based, Staphylococcus aureus
Description: An AV Fistula Needle 17 Ga.

C. sakazakii = assay: Biofilm amounts, ATP assay, 24-well polystyrene plate; type: cell-based; conditions: Cronobacter sakazakii, 37° C.
albino rabbits = conditions: 0.5 ml EAA, semi-occlusive cover, intact skin, 4 hours of exposure; cited from earlier work
S. marcescens [5] = assay: Biofilm amounts, ATP assay, 24-well polystyrene plate; type: cell-based; conditions: Serratia marcescens, 30° C.
E. coli CFT073 = assay: Biofilm in silicone tubing, EAA flush, ATP assay
P. aeruginosa [6] = assay: Viable cell counts in the liquid collected from the tubing before each treatment
[7] = system: Cronobacter sakazakii, Serratia marcescens, and Yersinia enterocolitica; assay: Growth and biofilm assays, summary over the three pathogens
lactobacilli = assay: Ground beef at 10° C., counts on APT plates; type: cell-based; conditions: for Different from 0% (concentrations grouping differently from untreated control, Fisher's LSD and t-test): LPT, Lactobacilli
Description: Ground beef was obtained from the NDSU Meat Lab (ag.ndsu.edu/ansc/facilities/shepperd-arena). Precautionary steps that the slaughter facility undertakes to prevent microbial contamination of muscle meat include rinses of the hot carcass with hot water and 2.5% lactic acid (Birko Corp., Henderson, Colo.). Prior to cutting the meat, cattle halves are incubated for two weeks at a temperature between 0 and 2.2° C. For this Example, meat from two animals was ground within the NDSU Meat Lab and consecutively transferred on ice to the research lab where this Experiment was conducted. Approximately 4 pound of ground meat was obtained from two independent slaughter events (FIG. 6). These two original meat samples are referred to as biological replicates throughout this study. Each biological replicate was weighed into five aliquots of 200 g that were supplemented with 0 g, 0.1 g, 0.5 g, 1 g, or 5 g of liquid EAA (Alfa Aesar, Ward Hill Mass.). […]
Meat samples were removed from the freezer and incubated at 10° C. for five days; bacterial counts were determined on days 1, 3, and 5. […]
The content of each bag was transferred into a stomacher bag and Maximum Recovery Diluent (MRD) was added to a total of 50 ml. […] The total bacterial count of each homogenate was determined by plating serial dilutions on Plate Count Agar (PCA). Pseudomonads were determined with Pseudomonas Selective Agar (PSA), lactobacilli with All Purpose Tween agar (APT), B. thermospacta with Streptomycin sulphate, Thallous Acetate and Actidione agar (STAA), and Enterobacteriaceae with Violet Red Bile Glucose agar (VRBG). […]
Each experiment was performed in a total of 8 replicates (2 biological replicates×2 technical replicates×2 plate replicates). […] Data were analyzed for each EAA concentration and selective media and expressed as CFU/g of meat or log10 CFU/g of meat. […] Average and standard errors were calculated across the two biological and two technical replicates. […]

Y. enterocolitica [8] = assay: Viable bacteria (cell counts) within the biofilm; type: cell-based, Yersinia enterocolitica
Y. enterocolitica [9] = assay: Biofilm in silicone tubing, EAA flush, CV assay; conditions: 10 mg/ml EAA
Y. enterocolitica [10] = assay: Planktonic growth (maximal velocity of OD600) in TSB; type: cell-based, Yersinia enterocolitica; conditions: for IC50: Yersinia enterocolitica, Y. enterocolitica
Description: The IC50 values were calculated using […] software (Hitachi Solutions, San Bruno, Calif.).

CCOC(=O)CC(C)=O [EAA, ethyl acetoacetate]
mutagenicity (B. subtilis): No mutagenicity was detected
reduction in ATP content of the biofilm (S. marcescens [1]): ~100%
ATP content of P. aeruginosa biofilm (P. aeruginosa [2]; 100 mg/ml EAA, first experiment): not affected; also recorded: not reduced
reduction of ATP (P. aeruginosa [2]; P. aeruginosa, 10 mg/ml of EAA): 76%
ATP assay of the biofilm at the end of the two week incubation (P. aeruginosa [2]; P. aeruginosa, 100 mg/ml of EAA, repeated experiment): just about abolished the biofilm
difference in viable cells in the liquid, EAA vs media flush (S. aureus [3]): 2 log
reduction in the bacterial counts of S. enterica (S. enterica; 0.5% EAA, 10° C.): not observed
log reduction, Salmonella enterica serovar Typhimurium (S. enterica; 0.5% w/w EAA, 3 days at 10° C.): 0.2
percent reduction of ATP (S. aureus [4]; 100 mg/ml EAA): 75% and 76%
ATP assay of the biofilm at the end of the two week incubation (S. aureus [4]; 100 mg/ml of EAA, repeated experiment): just about abolished the biofilm
IC50 (C. sakazakii): 310 µg/mL (≈ 2.38 mM)
skin irritation (albino rabbits): no indications of irritation were detected
IC50 (S. marcescens [5]): 5500 µg/mL (≈ 42.3 mM)
reduction in ATP content of the biofilm (E. coli CFT073; E. coli CFT073, 5 mg/ml EAA): ~100%
percent reduction of ATP (E. coli CFT073; E. coli CFT073, 100 mg/ml EAA): 98.5%
difference in viable cells in the liquid, EAA vs media flush (P. aeruginosa [6]; before the 2nd treatment, 100 mg/ml of EAA as first treatment): < 2 log
increase in viable cells in the liquid, EAA vs media flush (P. aeruginosa [6]; before the 4th treatment, 3 treatments of 100 mg/ml of EAA): ~1 log
difference in cell numbers, EAA vs media control (P. aeruginosa [6]; before the third treatment, two treatments of 100 mg/ml of EAA): approximately 2 logs
IC50 ([7]; read-out: IC50 values for biofilm amounts (summary)): ~1000 µg/mL (≈ 7.68 mM)
IC50 ([7]; read-out: IC50 values, range over all experiments): 310 to 5600 µg/mL (≈ 2.38 to 43 mM)
reduction of growth, biofilm amounts and live bacterial cell counts ([7]; three pathogens, maximal reduction): up to 3 logs
log reduction, lactobacilli (lactobacilli; 0.5% w/w EAA, 3 days at 10° C.): 1.8
Different from 0% (concentrations grouping differently from untreated control, Fisher's LSD and t-test) (lactobacilli; 0.5% EAA): 0.5%
Different from 0% (concentrations grouping differently from untreated control, Fisher's LSD and t-test) (lactobacilli; 2.5% EAA): 2.5%
reduction of bacterial cell counts in the biofilm (Y. enterocolitica [8]; 25° C., 7.5 mg/ml EAA): 2.06 logs
reduction of bacterial cell counts in the biofilm (Y. enterocolitica [8]; 25° C., 10 mg/ml EAA): 3.07 logs
bacterial cell counts in the biofilm (Y. enterocolitica [8]; 37° C., 2.5 mg/ml EAA): did not show a reduction
log reduction of bacterial cell counts in the biofilm (Y. enterocolitica [8]; 37° C., 7.5 mg/ml EAA): 2.06 logs
log reduction in live bacteria within the biofilm (Y. enterocolitica [8]; 37° C., 10 mg/ml of EAA): 0.92
reduction in live bacteria within the biofilm, fold equivalent (Y. enterocolitica [8]; 37° C., 10 mg/ml of EAA): 8.3 fold
IC50 (Y. enterocolitica [8]; Yersinia enterocolitica, Y. enterocolitica, 25° C., live bacteria in the biofilm, read-out: IC50, Live cells): 3000 µg/mL (≈ 23.1 mM)
reduction in biofilm biomass (CV), words (Y. enterocolitica [9]): No reduction
log reduction of planktonic growth (Y. enterocolitica [10]; 25° C., 10 mg/ml EAA): 1.7 log
reduction of planktonic growth, fold equivalent (Y. enterocolitica [10]; 25° C., 10 mg/ml EAA): 50 fold
log reduction of planktonic growth (Y. enterocolitica [10]; 37° C., 5 mg/ml EAA): 1.78
reduction of planktonic growth, fold equivalent (Y. enterocolitica [10]; 37° C., 5 mg/ml EAA): 61 fold
IC50 (Y. enterocolitica [10]; 25° C.): 3200 µg/mL (≈ 24.6 mM)
IC50 (Y. enterocolitica [10]; 37° C.): 2480 µg/mL (≈ 19.1 mM)
